Measured values taken from patent US20220119440A1, “PEPTIDE AND METHOD FOR MANUFACTURING SAME” (AGC Inc., priority 2019, published 2022).
Like-named read-outs stand apart in the source and are kept apart here. Peptide text beside a SMILES is read from it. * marks the point of attachment. NHBn = c1ccc(CN*)cc1

Columns and labels:
[1] = MDCK-II assay (cell monolayer assay); assay type: in vitro ADME; conditions: dog
Method: (§1) Further, with respect to the peptides synthesized in Examples 14, 15 and 17 and Comparative Examples 5,6 and 8, MDCK-II assay was conducted. For the MDCK-II assay, propranolol (CAS No: 318-98-9) was used as a positive control (“PC”) and Norfloxacin (CAS No: 70458-96-7) as a negative control (“NC”).
MDCK-II cells were seeded on Cell Culture Inserts (Falcon) at 5.04×10^4 cells/mL, and 5 days after seeding, cell monolayer assay (MDCK-II assay) was conducted. The peptide stock solution was prepared at 2 mM in DMSO solution, and diluted with HBSS containing 20 mM of HEPES (pH 7.5) to prepare a 2 μM peptide solution using as a solvent 0.1% DMSO/HBSS (+), as a donor solution. The acceptor solution was a 0.1% DMSO solution using as a solvent HBSS (+) containing 20 mM of HEPES (pH 7.5). […] The peptide concentration was analyzed by LC/MS. The experiment was conducted repeatedly three times. The permeability (Papp) was calculated in accordance with the following formula.
A: filter area (0.3 cm^2) VB: basolateral well volume (0.75 cm^3) t: incubation time (s) (2 hours=7200 s) C0: initial concentration in apical chamber (2 μM) CB (t): basolateral compound concentration at time t

[2] = PAMPA (Parallel Artificial Membrane Permeability Assay); assay type: in vitro ADME
Method: as §1
Permeability of the peptides was evaluated by PAMPA. In the PAMPA, 300 μL of a 5% DMSO-containing PBS was added to the respective wells of an accepter plate (MultiScreen 96-well transport receiver plate, manufactured by Merck), and 150 μL of a peptide solution (20 μM) dissolved in 5% DMSO/PBS was added to the respective wells of a donor plate (MultiScreen-IP filter plate, 0.45 μm, manufactured by Merck). A dodecane solution of 1% lecithin (from soybean) was subjected to ultrasonic treatment for 30 minutes before use, and 5 μL of the solution was applied to the membrane support (PVDF) of the respective wells of the donor plate. The donor plate was placed on the acceptor plate, and the plates were left to stand in an incubator at 25° C. for 18 hours. The peptide concentration was determined by LC/MS. The experiment was conducted repeatedly three times. The permeability (Pe) was calculated in accordance with the following formulae.
A: filter area (0.3 cm^2) VD: volume of donor well (0.15 cm^3) VA: volume of acceptor well (0.3 cm^3) t: incubation time (s) (18 hours=64800 s) CD (t): compound concentration in donor well at time t CA (t): compound concentration in acceptor well at time t

[3] = MDCK-II monolayer, 2 μM peptide, apical side to basolateral side, 37° C., 5% CO2, 2 hours, repeated three times, read-out: Papp
[4] = peptide 20 μM in 5% DMSO/PBS, 1% lecithin in dodecane on PVDF, 25° C. for 18 hours, repeated three times, read-out: Pe

Compound | Papp A→B at 2 h, 2 μM ([1]; MDCK) [×10⁻⁶ cm/s] | Papp at 18 h, 20 μM [2] [×10⁻⁶ cm/s] | Papp A→B at 2 h, 2 μM [1, 3] [×10⁻⁶ cm/s] | Papp at 18 h, 20 μM [2, 4] [×10⁻⁶ cm/s]
CC(=O)N[C@@H](C)C(=O)N[C@@H](C)C(=O)NCc1ccccc1 [Comparative Example 5, Ac-L-Ala-L-Ala-NHBn, reference compound] (Ac-Ala-Ala-NHBn) | 1.23 |  |  | 
CC(=O)N[C@H](C(=O)N[C@@H](C)C(=O)N(C)C)C(C)C [Comparative Example 7, Ac-L-Val-L-Ala-NMe2, reference compound] (Ac-Val-Ala-NMe2) |  | ≤ 0.003 |  | 
CC(=O)N[C@H](C(=O)N[C@@H](Cc1ccccc1)C(=O)NCC(C)C)C(C)C [Comparative Example 8, Ac-L-Val-L-Phe-iBu, reference compound] | 7.12 | 0.07 |  | 
CC(=O)NC(C(=O)N[C@@H](C)C(=O)NCc1ccccc1)C(F)(F)F (stereo partly drawn) [Example 14, Ac-D,L-Ala (F3)-L-Ala-NHBn] |  |  | 3.26 | 
CC(=O)NC(C(=O)N[C@@H](Cc1ccccc1)C(=O)NCC(C)C)C(F)(F)F (stereo partly drawn) [Example 15, Ac-D,L-Ala (F3)-L-Phe-iBu] |  |  | 9.86 | 0.19
CC(=O)NC(C(=O)N[C@@H](C)C(=O)N(C)C)C(C(F)(F)F)C(F)(F)F (stereo partly drawn) [Example 16, Ac-D,L-Val (F6)-L-Ala-NMe2] |  |  |  | 0.04
CC(=O)NC(C(=O)N[C@@H](Cc1ccccc1)C(=O)NCC(C)C)C(C(F)(F)F)C(F)(F)F (stereo partly drawn) [Example 17, Ac-D,L-Val (F6)-L-Phe-iBu] |  |  | 8.38 | 1.57
